Measured values: patent US11345702B1 (Myoforte Therapeutics, Inc., priority 2020, dated 2022)

Molecular target: 15-PGDH/HPGD (Homo sapiens (Human), UniProt P15428)
Experiment: hPGDH inhibitor screening biochemical assay
Settings: read-out: hPGDH: Average IC50
Method in brief: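 Ten-point dose-response inhibition of 15-PGDH measured by fluorescence (340/485 nm) after 10 min at room temperature with PGE2 (15 μM) and NAD+ (0.25 mM), following 10 min enzyme (10 nM)–compound pre-incubation at 37 °C. Buffer: 50 mM Tris-HCl pH 7.5, 0.01% Tween 20. Percent inhibition relative to 1% DMSO; four-parameter IC50.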

Sequence of 15-PGDH/HPGD (P15428 whole entry): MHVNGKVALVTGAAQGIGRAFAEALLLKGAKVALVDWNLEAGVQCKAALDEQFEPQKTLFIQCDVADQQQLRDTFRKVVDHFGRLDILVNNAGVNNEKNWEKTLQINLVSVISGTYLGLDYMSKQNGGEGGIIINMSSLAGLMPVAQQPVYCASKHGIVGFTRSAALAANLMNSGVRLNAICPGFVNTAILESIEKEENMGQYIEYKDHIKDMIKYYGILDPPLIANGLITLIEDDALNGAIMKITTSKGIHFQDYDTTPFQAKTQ

| Structure (SMILES) | IC50 [nM] |
| --- | --- |
| COCCc1nc2cc(C(=O)N3CCC(F)CC3)cnc2n1-c1ccc(OC)cc1 [MF-DH-185] | ≥ 1000 |
| CCn1cnc(-n2ccc3cc(C(=O)N4CCCCC4)cnc32)c1 [MF-PGDH-073] | 100 to 1000 |
| COc1ccc(-n2ccc3cc(C(=O)N4CCN(CC(F)(F)F)CC4)cnc32)cc1 [MF-DH-327] | ≥ 1000 |
| O=C(c1ccc2c(c1)ncn2-c1cccc(Cl)c1)N1CCC1 [MF-PGDH-104] | 100 to 1000 |
| O=C(Nc1ccccc1)c1ccc2c(c1)ncn2-c1cccc(Cl)c1 [MF-PGDH-065] | ≥ 1000 |
| N#Cc1ccc(-n2ccc3cc(C(=S)N4CCC(F)(F)CC4)cnc32)cc1 [MF-DH-449, 4-(5-(4,4-difluoropiperidine-1-carbonothioyl)-1H-pyrrolo[2,3-b]pyridin-1-yl)benzonitrile] | ≥ 1000 |
| CN(C(=O)c1ccc2c(c1)ncn2-c1cccc(Cl)c1)C1CC1 [MF-PGDH-064, 1-(3-chlorophenyl)-N-cyclopropyl-N-methyl-1H-benzo[d]imidazole-5-carboxamide] | ≥ 1000 |
| CCC(CC)n1cnc2cc(C(=O)N3CCCCC3)cnc21 [MF-DH-236] | 100 to 1000 |
| O=C(c1ccc(CS(=O)(=O)c2ccccc2Cl)cc1)N1CCCCC1 [MF-PGDH-040, (4-(((2-chlorophenyl)sulfonyl)methyl)phenyl)(piperidin-1-yl)methanone] | 100 to 1000 |
| COc1ccc(-n2ccc3cc(C(=O)N4CCC(c5ccccc5)CC4)cnc32)cc1 [MF-DH-325] | ≥ 1000 |
| COc1ccc(-n2ccc3c(NCc4ccccc4)c(C(=O)N4CCCCC4)cnc32)cc1 [MF-DH-385, (4-(benzylamino)-1-(4-methoxyphenyl)-1H-pyrrolo[2,3-b]pyridin-5-yl) (piperidin-1-yl) methanone] | 100 to 1000 |
| COc1ccc(-n2c(C3CC3)nc3cc(C(=O)N4CCCCC4)ccc32)cc1 [MF-PGDH-021] | 100 to 1000 |
| O=C(c1ccc2c(c1)c(Cl)nn2-c1cncc(Cl)c1)N1CCCCC1 [MF-DH-271] | 100 to 1000 |
| COc1ccccc1C(=O)Nc1ccc(C(=O)N2CCC(F)(F)CC2)cc1 [MF-PGDH-087] | 100 to 1000 |
| CC(C)(O)C#Cc1nc2cc(C(=O)N3CCC(F)(F)CC3)cnc2n1-c1ccc(C#N)cc1 [MF-DH-476, 4-(6-(4,4-difluoropiperidine-1-carbonyl)-2-(3-hydroxy-3-methylbut-1-yn-1-yl)-3H-imidazo[4,5-b]pyridin-3-yl)benzonitrile] | 100 to 1000 |
| O=C(c1cnc2c(c1)c(Cl)cn2-c1ccncn1)N1CCC(F)CC1 [MF-DH-132] | 100 to 1000 |
| COc1cc(C(=O)N2CCC(F)CC2)ccc1COc1ccccc1Cl [MF-DH-118] | 100 to 1000 |
| O=C(O)[C@@H]1CCCN1C(=O)c1cccc(-n2ccc3cc(C(=O)N4CCC(F)(F)CC4)cnc32)c1 [MF-DH-489, (3-(5-(4,4-difluoropiperidine-1-carbonyl)-1H-pyrrolo[2,3-b]pyridin-1-yl)benzoyl)-L-proline] | 100 to 1000 |

| Structure (SMILES) | IC50 [nM] |
| --- | --- |
| COc1ccc(-n2ccc3cc(C(=O)N4CCC(C(F)(F)F)CC4)cnc32)cc1 [MF-DH-324] | 100 to 1000 |
| Cc1nc2c(cc1C(=O)N1CCC(F)CC1)c(Cl)cn2-c1cnccn1 [MF-DH-149] | ≥ 1000 |
| COc1cccc(-n2ccc3cc(C(=O)N4CCCCC4)cnc32)c1 [MF-DH-294] | < 100 |
| COc1ccc(Cn2cc(-n3ccc4cc(C(=O)N5CCCCC5)cnc43)cn2)cc1 [MF-DH-129] | 100 to 1000 |
| O=C(c1cnc2c(ccn2-c2ccncn2)c1)N1CCC(F)CC1 [MF-DH-131] | < 100 |
| O=C(c1cnc2c(ccn2-c2cccc(Cl)c2)c1)N1CCCCC1 [MF-PGDH-014] | < 100 |
| COc1cc(C(=O)N2CCCCC2)ccc1COc1ccccc1Cl [MF-PGDH-038] | < 100 |
| O=C(c1ccc2c(cnn2-c2cccc(Cl)c2)c1)N1CCCCC1 [MF-PGDH-006, (1-(3-chlorophenyl)-1H-indazol-5-yl)(piperidin-1-yl)methanone] | < 100 |
| O=C(c1cnc2c(ccn2-c2cccnc2)c1)N1CCC(F)CC1 [MF-DH-134] | < 100 |
| O=C(c1ccc2c(c1)ncn2-c1cccc(Cl)c1)N1CC2(CCC2)C1 [MF-PGDH-019] | < 100 |
| O=C(c1cnc2c(c(Cl)cn2-c2cnccn2)c1Cl)N1CCC(F)CC1 [MF-DH-147] | < 100 |
| O=C(c1cnc2c(-c3cccc(Cl)c3)cnn2c1)N1CCCCC1 [MF-PGDH-012, (3-(3-chlorophenyl)pyrazolo[1,5-a]pyrimidin-6-yl)(piperidin-1-yl)methanone] | < 100 |
| O=C(c1cnc2c(ccn2-c2cccnc2)c1)N1CCCCC1 [MF-PGDH-068] | < 100 |
| O=C(c1cnc2c(ccn2C2CCC(F)(F)CC2)c1)N1CCCCC1 [MF-DH-284] | ≥ 1000 |
| CC1(C)CCN(c2cnccn2)c2ccc(C(=O)N3CCC(F)CC3)cc21 [MF-DH-160, (4,4-dimethyl-1-(pyrazin-2-yl)-1,2,3,4-tetrahydroquinolin-6-yl)(4-fluoropiperidin-1-yl)methanone] | 100 to 1000 |
| O=C(O)CCc1nc2cc(C(=O)N3CCCCC3)ccc2n1-c1cccc(Cl)c1 [MF-PGDH-034, 3-(1-(3-chlorophenyl)-5-(piperidine-1-carbonyl)-1H-benzo[d]imidazol-2-yl)propanoic acid] | < 100 |
| O=C(c1cnc2c(c1)c(Cl)cn2-c1cncnc1)N1CCC(F)CC1 [MF-DH-145] | < 100 |
| O=C(c1ccc2c(ccn2-c2cccc(Cl)c2)c1)N1CCCCC1 [MF-PGDH-004] | < 100 |

The remaining lines, values ahead:

| IC50 [nM] | Structure (SMILES) |
| --- | --- |
| < 100 | COc1cncc(-n2cc(Cl)c3cc(C(=O)N4CCCCC4)cnc32)c1 [MF-DH-275] |
| < 100 | CS(=O)(=O)c1cccc(-n2ccc3cc(C(=O)N4CCCCC4)cnc32)c1 [MF-DH-309] |
| < 100 | O=C(O)[C@@H]1CCCN1C(=O)c1ccc(-n2ccc3cc(C(=O)N4CCC(F)(F)CC4)cnc32)cc1 [MF-DH-432] |
| < 100 | O=C(c1ccc2c(c1)CCCN2c1cccc(Cl)c1)N1CCCCC1 [MF-PGDH-057, (1-(3-chlorophenyl)-1,2,3,4-tetrahydroquinolin-6-yl)(piperidin-1-yl)methanone] |
| < 100 | COc1ccc(-n2cc(Cl)c3cc(C(=O)N4CCCCC4)cnc32)cc1 [MF-DH-239] |
| < 100 | COc1cccc(-n2cc(Cl)c3cc(C(=O)N4CCCCC4)cnc32)c1 [MF-DH-273] |
| < 100 | N#Cc1ccc(-n2cc(Cl)c3cc(C(=O)N4CCC(F)CC4)cnc32)cc1 [MF-DH-388] |
| < 100 | Nc1ncc(-n2ccc3cc(C(=O)N4CCCCC4)cnc32)cc1Cl [MF-DH-393] |
| < 100 | NC(=O)c1cncc(-n2ccc3cc(C(=O)N4CCC(F)CC4)cnc32)c1 [MF-DH-351] |
| < 100 | O=C(c1cnc2c(ccn2-c2cccc(CO)c2)c1)N1CCCCC1 [MF-DH-308] |
| < 100 | CN(C)C(=O)c1ccc(-n2ccc3cc(C(=O)N4CCCCC4)cnc32)cc1 [MF-DH-369] |
| < 100 | COc1ccc(-n2cnc3cc(C(=O)N4CCCCC4)ccc32)nc1 [MF-PGDH-022] |
| < 100 | N#Cc1ccc(-n2ccc3cc(C(=O)N4CCC(F)(F)CC4)cnc32)cc1 [MF-DH-439] |
| < 100 | CN(C)c1cccc(-n2ccc3cc(C(=O)N4CCCCC4)cnc32)c1 [MF-DH-302] |
| < 100 | N#Cc1ccc(-n2ccc3cc(C(=O)N4CCCCC4)cnc32)cn1 [MF-DH-389] |
| < 100 | CNC(=O)c1cncc(-n2ccc3cc(C(=O)N4CCCCC4)cnc32)c1 [MF-DH-362] |

| IC50 [nM] | Structure (SMILES) |
| --- | --- |
| < 100 | Cc1cncc(-n2ccc3cc(C(=O)N4CCCCC4)cnc32)c1 [MF-DH-320] |
| < 100 | O=C(c1ccc2c(-c3cccc(Cl)c3)c[nH]c2c1)N1CCCCC1 [MF-PGDH-053, (3-(3-chlorophenyl)-1H-indol-6-yl)(piperidin-1-yl)methanone] |
| < 100 | N#Cc1ccc(-n2ccc3cc(C(=O)N4CC[C@@H](F)C4)cnc32)cc1 (single isomer, unassigned) [MF-DH-575] |
| < 100 | COc1ccc(-n2cnc3cc(C(=O)N4CCCCC4)ccc32)cc1 [MF-PGDH-008] |
| < 100 | N#Cc1ncc(-n2ccc3cc(C(=O)N4CCCCC4)cnc32)cn1 [MF-DH-397] |
| < 100 | NC(=O)[C@@H]1CCCN1C(=O)c1cccc(-n2ccc3cc(C(=O)N4CCC(F)(F)CC4)cnc32)c1 [MF-DH-486, (S)-1-(3-(5-(4,4-difluoropiperidine-1-carbonyl)-1H-pyrrolo[2,3-b]pyridin-1-yl)benzoyl)pyrrolidine-2-carboxamide] |
| < 100 | O=C(O)c1ccc(-n2ccc3cc(C(=O)N4CCC(F)(F)CC4)cnc32)nc1 [MF-DH-469] |
| < 100 | COc1ccc(-n2cnc3cc(C(=O)N4CCC(F)CC4)ccc32)cc1 [MF-PGDH-009] |
| < 100 | O=C(c1ccc2c(c1)ncn2-c1cccc(Cl)c1)N1CCCCCC1 [MF-PGDH-016] |
| < 100 | COCCNC(=O)c1ccc(-n2ccc3cc(C(=O)N4CCCCC4)cnc32)cc1 [MF-DH-367] |
| < 100 | O=C(c1ccc2c(c1)ncn2-c1cccc(Cl)c1)N1CCC(F)(F)CC1 [MF-PGDH-026] |
| < 100 | NC(=O)[C@@H]1CCCN1C(=O)c1ccc(-n2ccc3cc(C(=O)N4CCC(F)(F)CC4)cnc32)cc1 [MF-DH-450, (S)-1-(4-(5-(4,4-difluoropiperidine-1-carbonyl)-1H-pyrrolo[2,3-b]pyridin-1-yl)benzoyl)pyrrolidine-2-carboxamide] |
| < 100 | Nc1ccc(-n2ccc3cc(C(=O)N4CCCCC4)cnc32)cn1 [MF-DH-336] |
| < 100 | O=C(c1ccc2c(c1)ncn2-c1cccc(Cl)c1)N1CC(Cl)C1 [MF-PGDH-107] |
| < 100 | O=C(c1cnc2c(ccn2-c2cccc(C(=O)N3CC[S+]([O-])C3)c2)c1)N1CCC(F)(F)CC1 (centres unmarked) [MF-DH-527, (4,4-difluoropiperidin-1-yl)(1-(3-(1-oxidothiazolidine-3-carbonyl)phenyl)-1H-pyrrolo[2,3-b]pyridin-5-yl)methanone] |
| < 100 | N#Cc1ccc(-n2ccc3cc(C(=O)N4CCC(F)(F)CC4)cnc32)cc1O [MF-DH-441] |
